Measured values as given in patent publication US20080027003A1, “Peptides Useful for Treating Gnrh Associated Diseases” (CurePeptide Ltd., priority 2004, published 2008).
Where two headings read alike, the source gives them in different places. Non-standard residues stand in square brackets, D forms with d. Residues, ends and D or L forms follow the SMILES beside them. *: point of attachment. Palmitoyl = CCCCCCCCCCCCCCCC(=O)*

Assays:
[1] = system: female athymic nude mice NCr-nu; test: Total tolerated dosage (TTD), single injection; assay type: in vivo; conditions: observed 14 days
Description: The total tolerated dosage of peptide by mice administered with a single injection was tested.
The test compounds were administered to 10 female athymic nude mice NCr-nu (Charles River Laboratories, Wilmington, Mass.) as a single injection at the following dosages and routes:
Peptide X was injected intra-peritonealy (IP) at 400, 200, and 100 mg/kg.
Peptide NLS-E was tested intra-venously (IV) at 400, 200, 100, 50 and 25 mg/kg
Different injection volumes of a stock solution at a concentration of 20 mg/ml were used to administer the desired dosages (injection volumes of 0.05, 0.1, and 0.2 ml/10 g body, respectively) The carrier was water for injection at pH 7. […] Individual body weights were measured twice a week.

[2] = system: female athymic NCr-nu nude mice; test: Maximal tolerated dosage (MTD), twice a day for 14 consecutive days; assay type: in vivo; conditions: for mice that died: five mice per group
Description: The maximum tolerated dosage (MTD) of the test compounds was tested when administered twice a day for 14 consecutive days.
A total of 50 female athymic NCr-nu nude mice (obtained as mentioned in Example 10a) were used as follows: five groups of mice with five mice per group per compound. Peptides dissolved in water at pH 7 (the vehicle) were evaluated at four dosages (The dosages selected were derived from the results of the TTD experiment, Example 10a):
Peptide X was injected IP at 20 mg/kg/injection for 7 days, followed by IP injections at […] 10, 5, 2.5 mg/kg/injection for 7 days followed by 30, 15 and 7.5 mg/kg, for 14 days respectively.
Peptide NLS-E was tested at 10, 5, 2.5, and 1.25 mg/kg/injection followed by injection at 30, 15, 7.5 and 3.75 mg/kg respectively. Injections were given IV except in the groups treated with 10/30 and 5/15 mg/kg/injection, where injections were switched to IP route on day 10 of treatment.
Additionally, one vehicle-treated control group of five mice per compound was included in the experiment. […] The MTD study was terminated on Day 29.
Individual body weights were measured twice a week.

MDA-MB-231 = assay type: cell-based, human; conditions: 24 h
Description: (§1) Hemacolor assay—A comparative study was effected between peptides GnRH—X and NLS-GnRH-E on three adenocarcinoma cell lines: MDA-MB-231 (breast) HCT-116 and Colo-205 (colon), described in Example 5 above. Briefly, cells were plated in 96 well plates and allowed to adhere to the plates. Thereafter, various concentrations of GnRH and NLS-GnRH peptides were incubated with the adhered cells for 24 h. To quantify the extent of damage to the cells by the peptides, the Hemacolor assay was effected as described in Example 5. Viable cells which remained adhered to the 96 plastic plates were fixed and stained. Dye was extracted from the plate by addition of 0.5% SDS in PBS (100 μl) with vigorous mixing. Plates were quantified at 650 nm by spectrophotometer (ELISA reader). Cell viability of ≧95% by Trypan blue exclusion from 400 cells was a prerequisite for each experiment. Note, the color intensity is proportional to the extent of the remaining viability. Data was calculated as EC50, which is defined as the concentration (in μM) of analog that provokes a response half way between the baseline (Bottom=control) and maximum response (Top).

HCT-116 = assay type: cell-based, human; conditions: 24 h
Description: as §1

Colo-205 = assay type: cell-based, human; conditions: 24 h
Description: as §1

[3] = system: Colo-205 adenocarcioma cell line; test: Growth inhibitory effect by Hemacolor assay on Colo-205 (Example 7); assay type: cell-based, human
Excerpt: Peptides were synthesized as described in Example 6 above.
Table 10 below summarizes the concentration of the various peptides required to obtain 50% viability, or to destroy 50% of the tumor cells, as derived from the hemacolor test (FIGS. 3 and 4a-c). Of note, the higher the concentration of peptide required, the poorer the potency of the analog.

[4] = read-out: Concentration required to obtain 50% viability
[5] = read-out: Concentration [M] × 10^−6 (derived from table 10)

| Molecule | EC50 (MDA-MB-231) | EC50 (HCT-116) | EC50 (Colo-205) | Activity with respect to NLS-E (%) [3] | EC50 [3, 4] | EC50 [3, 5] | further results |
| --- | --- | --- | --- | --- | --- | --- | --- |
| CCCCCCCCCCCCCCCC(=O)N1CCC[C@H]1C(=O)NCC(=O)N[C@H](Cc1ccccc1)C(=O)N1CCC[C@H]1C(=O)N[C@@H](CO)C(=O)N[C@@H](Cc1ccc(O)cc1)C(=O)N[C@H](CCCCN)C(=O)N[C@@H](CC(C)C)C(=O)N[C@@H](CCCNC(=N)N)C(=O)N1CCC[C@H]1C(=O)NCC(N)=O [SEQ ID NO: 2, Palm-Pro-Gly-D-Phe-Pro-Ser-Tyr-D-Lys-Leu-Arg-Pro-Gly-NH2] (Palmitoyl-PG[dF]PSY[dK]LRPG-NH2) | 400 µM | 750 µM | 200 µM | – | – | – | lethality after single injection ([1]; IP, 100 mg/kg): stayed alive; lethality after single injection ([1]; IP, 200 mg/kg): lethal; lethality after single injection ([1]; IP, 400 mg/kg): lethal; mice that died ([2]; 10/30 mg/kg): one; mice that died ([2]; IP, 20/60 mg/kg): Three |
| CCCCCCCCCCCCCCCC(=O)N[C@H](CCCCNC(=O)[C@@H](NC(=O)[C@H](CCCCN)NC(=O)[C@H](CCCNC(=N)N)NC(=O)[C@H](CCCCN)NC(=O)[C@H](CCCCN)NC(=O)[C@H](CCCCN)NC(=O)[C@@H]1CCCN1)C(C)C)C(=O)N1CCC[C@H]1C(=O)NCC(=O)N[C@H](Cc1ccccc1)C(=O)N1CCC[C@H]1C(=O)N[C@@H](CO)C(=O)N[C@@H](Cc1ccc(O)cc1)C(=O)N[C@H](CCCCN)C(=O)N[C@@H](CC(C)C)C(=O)N[C@@H](CCCNC(=N)N)C(=O)N1CCC[C@H]1C(=O)NCC(N)=O [SEQ ID NO: 33, Palm-D-Lys(H-Pro-Lys-Lys-Lys-Arg-Lys-Val)-Pro-Gly-D-Phe-Pro-Ser-Tyr-D-Lys-Leu-Arg-Pro-Gly-NH2] | 350 µM | 320 µM | 68 µM | – | – | – | lethality after single injection ([1]; IV, 25 mg/kg): stayed alive; lethality after single injection ([1]; IV, 50 mg/kg): stayed alive; lethality after single injection ([1]; IV, 100 mg/kg): lethal; lethality after single injection ([1]; IV, 200 mg/kg): lethal; lethality after single injection ([1]; IV, 400 mg/kg): lethal; mice that died ([2]; IV injected, all dosages): None; comparative toxicity ([2]; repeated dosing in mice): less toxic than peptide X |
| Palm-D-Lys-Gly-D-Phe-Pro-Ser-Tyr-D-Lys-Leu-Arg-Pro-Gly-NH2 (Palmitoyl-[dK]G[dF]PSY[dK]LRPG-NH2; SMILES CCCCCCCCCCCCCCCC(=O)N[C@H](CCCCN)C(=O)NCC(=O)N[C@H](Cc1ccccc1)C(=O)N1CCC[C@H]1C(=O)N[C@@H](CO)C(=O)N[C@@H](Cc1ccc(O)cc1)C(=O)N[C@H](CCCCN)C(=O)N[C@@H](CC(C)C)C(=O)N[C@@H](CCCNC(=N)N)C(=O)N1CCC[C@H]1C(=O)NCC(N)=O) [SEQ ID NO: 10] | – | – | – | 12.5% | 5e-05 M | – | – |
| Palm-D-Lys-Pro-Gly-D-Phe-Pro-Ser-Tyr-D-Lys-Leu-Arg-Pro-Gly-NH2 (Palmitoyl-[dK]PG[dF]PSY[dK]LRPG-NH2; SMILES CCCCCCCCCCCCCCCC(=O)N[C@H](CCCCN)C(=O)N1CCC[C@H]1C(=O)NCC(=O)N[C@H](Cc1ccccc1)C(=O)N1CCC[C@H]1C(=O)N[C@@H](CO)C(=O)N[C@@H](Cc1ccc(O)cc1)C(=O)N[C@H](CCCCN)C(=O)N[C@@H](CC(C)C)C(=O)N[C@@H](CCCNC(=N)N)C(=O)N1CCC[C@H]1C(=O)NCC(N)=O) [SEQ ID NO: 9] | – | – | – | 16% | 3.5e-05 M | 3.5e-05 M | Activity with respect to NLS peptide (%) ([3]; relative to the corresponding NLS-conjugated peptide): 16% |
| Palm-Pro-Gly-D-Phe-Ala-Ser-Tyr-D-Lys-Leu-Arg-Pro-Gly-NH2 (Palmitoyl-PG[dF]ASY[dK]LRPG-NH2; SMILES CCCCCCCCCCCCCCCC(=O)N1CCC[C@H]1C(=O)NCC(=O)N[C@H](Cc1ccccc1)C(=O)N[C@@H](C)C(=O)N[C@@H](CO)C(=O)N[C@@H](Cc1ccc(O)cc1)C(=O)N[C@H](CCCCN)C(=O)N[C@@H](CC(C)C)C(=O)N[C@@H](CCCNC(=N)N)C(=O)N1CCC[C@H]1C(=O)NCC(N)=O) [SEQ ID NO: 16] | – | – | – | 16% | 3.5e-05 M | – | – |
| Palm-Pro-Gly-D-Phe-Pro-Ser-Tyr-D-Lys(H-Pro-Lys-Lys-Lys-Arg-Lys-Val)-Leu-Arg-Pro-Gly-NH2 [SEQ ID NO: 32] | – | – | – | 50% | 1e-05 M | 1e-05 M | – |
